Laboratory results taken from patent US11723907B2, “Anti-aging compounds” (THE CLEVELAND CLINIC FOUNDATION, priority 2017, dated 2023).

Experiments:
[1] = cited from earlier work
cytochrome c = assay: Enzymatic NAD(P)H oxidation / cytochrome c reduction catalyzed by N2N1; format: biochemical; conditions: inhibitor 2 μM
Method: FIGS. 5A-5C provide graphs and schemes relating to the N2N1 mechanism of action. […] No specific substrate was added into reaction mix, therefore, it was concluded that reaction was driven by slow reduction of molecular oxygen dissolved into reaction buffer. The hypothetical reaction equation is shown below reaction plots. (B) The proposed molecular mechanism of possible substrate reduction catalyzed by N2N1. (C) Addition of peroxide or cytochrome c into reaction allowed us to identify cytochrome c as the most preferable substrate for the N2N1 driven enzymatic reaction. […] It was interesting to notice that addition of cytochrome c to non-enzymatic reaction reduced the reaction rate. […] The hypothetical reaction equation is show below the reaction plots.
FIGS. 6A-6B provide graphs showing the enzymatic reduction of cytochrome C catalyzed by N2N1 can utilize both NADH and NADPH. (A) The enzymatic electrons transfer from NADH to cytochrome c driven by N2N1 was monitored by decrease in absorption at 340 nm (NADH) and increase in absorption at 550 nm (cytochrome c). The absorbance spectrum was screened at the end of the reaction (˜1 hour). The hypothetical reaction equation is shown below the reaction plots. (B) The enzymatic electrons transfer from NADPH to cytochrome c driven by N2N1 was monitored by decrease in absorption at 340 nm (NADPH) and increase in absorption at 550 nm (cytochrome c). The hypothetical reaction equation is shown below the reaction plots.
To evaluate possible participation of mitochondrial NADH oxidoreductases, in particular Complex I and III, the […] was run in the presence of rotenone or antimycin A (2 μM). The acquired data allowed us to specify the most probable candidate that carry out the transfer electrons from NAD(P)H to cytochrome C driven by N2N1. The NQO1 protein would be the most likely candidate, while proteins from CYB5 family still cannot be ruled out.
Bonkowski et al., Nature reviews. Molecular cell biology 17, 679-690 (2016); Orr et al., Antioxidants & redox signaling 19, 788-803 (2013). It quite possible, that NAD(P)H oxidation catalyzed by N2N1 is performed by NADH:cytochrome b5 reductases (CYB5 . . . ) or NAD(P)H:quinone oxidoreductase (NQO1) reductase (FIG. 3C). The inventors found by RNA-seq analysis that fourteen genes from CYB5 family were expressed in normal fibroblast. NQO1 was also detected at the high level of expression. These reductases connect aerobic metabolism with aging by directed electron flow from NAD(P)H to oxygen, cytochrome C, and peroxide. Jimenez-Hidalgo et al., Aging cell 8, 140-151 (2009). […]

Compound	water solubility [1]	suppression of enzymatic reduction of cytochrome c catalyzed by N2N1 (cytochrome c)
CO[C@H]1C[C@@H]2CC[C@@H](C)[C@@](O)(O2)C(=O)C(=O)N2CCCC[C@H]2C(=O)O[C@H]([C@H](C)C[C@@H]2CC[C@@H](O)[C@H](OC)C2)CC(=O)[C@H](C)/C=C(\C)[C@@H](O)[C@@H](OC)C(=O)[C@H](C)C[C@H](C)/C=C/C=C/C=C/1C [Rapamycin]	poor	–
C=C(C)[C@H]1Cc2c(ccc3c2O[C@@H]2COc4cc(OC)c(OC)cc4[C@@H]2C3=O)O1 [rotenone, reference compound]	–	did not suppress
antimycin A [reference compound]	–	did not suppress
